Reference: US11925650B2, “Antibacterial chemical compound, its manufacturing method and its use thereof” (National Taiwan University, priority 2022, dated 2024)
Where two headings read alike, the source gives them in different places.

What was measured:
RAW264.7 = test: Cytotoxicity in RAW264.7 cells (HCA, MTT cell viability assay); assay type: cell-based
S. Typhimurium 14028 = test: Anti-intracellular Salmonella activity in infected RAW264.7 cells (HCA); assay type: cell-based, Salmonella Typhimurium; conditions: for Selectivity ratio (IC50/EC50): IC50 RAW264.7 / EC50 S. Typhimurium 14028
[1] = Mus musculus, RAW264.7, read-out: IC50 (μM) RAW264.7
[2] = Salmonella enterica, TYPHIMURIUM, RAW264.7, read-out: EC50 (μM) S. Typhimurium 14028, intracellular Salmonella in infected RAW264.7 cells
[3] = Mus musculus, cytotoxicity, RAW264.7 cells, read-out: IC50 (μM) RAW264.7
[4] = Salmonella enterica, TYPHIMURIUM, intracellular Salmonella in infected RAW264.7 cells, read-out: EC50 (μM) S. Typhimurium 14028

Compound | IC50 (RAW264.7; cytotoxicity, RAW264.7 cells, read-out: IC50 (μM) RAW264.7) | EC50 (S. Typhimurium 14028; intracellular Salmonella in infected RAW264.7 cells, read-out: EC50 (μM) S. Typhimurium 14028) | IC50 (RAW264.7; [1]) | Selectivity ratio (IC50/EC50) (S. Typhimurium 14028) | EC50 (S. Typhimurium 14028; [2]) | IC50 (RAW264.7; [3]) | EC50 (S. Typhimurium 14028; [4])
2-chloro-11-(3-(3,4-dichlorophenyl)propyl)dibenzo[b,f][1,4]oxazepine [SW15] | 82.7 µM | 31.1 µM | – | – | – | – | –
CN(C)CCNC1=Nc2ccccc2Oc2ccc(Cl)cc21 [SW1, N1-(2-chlorodibenzo[b,f][1,4]oxazepin-11-yl)-N2,N2-dimethylethane-1,2-diamine] | – | – | 34.6 µM | 9.5 | 3.6 µM | – | –
Clc1ccc2c(c1)C(NCCN1CCCC1)=Nc1ccccc1O2 [SW2, 2-chloro-N-(2-(pyrrolidin-1-yl)ethyl)dibenzo[b,f][1,4]oxazepin-11-amine] | – | – | 26.6 µM | 5.4 | 4.9 µM | – | –
Clc1ccc2c(c1)C(NCCN1CCCCC1)=Nc1ccccc1O2 [SW3, 2-chloro-N-(2-(piperidin-1-yl)ethyl)dibenzo[b,f][1,4]oxazepin-11-amine] | – | – | 22.2 µM | 5.1 | 4.3 µM | – | –
Clc1ccc2c(c1)C(NCCN1CCOCC1)=Nc1ccccc1O2 [SW4, 2-chloro-N-(2-morpholinoethyl)dibenzo[b,f][1,4]oxazepin-11-amine] | – | – | 84.7 µM | 2.6 | 32 µM | – | –
Clc1ccc2c(c1)C(NCCc1cccnc1)=Nc1ccccc1O2 [SW5, 2-chloro-N-(2-(pyridin-3-yl)ethyl)dibenzo[b,f][1,4]oxazepin-11-amine] | – | – | 74 µM | 1.9 | 38.2 µM | – | –
CN1CCCC1CCNC1=Nc2ccccc2Oc2ccc(Cl)cc21 (stereo not shown) [SW6, 2-chloro-N-(2-(1-methylpyrrolidin-2-yl)ethyl)dibenzo[b,f][1,4]oxazepin-11-amine] | – | – | 23 µM | 18.9 | 1.2 µM | – | –
Clc1ccc2c(c1)C(NCCc1ccccc1)=Nc1ccccc1O2 [SW7, 2-chloro-N-phenethyldibenzo[b,f][1,4]oxazepin-11-amine] | – | – | 56.3 µM | 2.7 | 21.2 µM | – | –
CCCCCNC1=Nc2ccccc2Oc2ccc(Cl)cc21 [SW8, 2-chloro-N-pentyldibenzo[b,f][1,4]oxazepin-11-amine] | – | – | 72.7 µM | 1.3 | 54.1 µM | – | –
Clc1ccc2c(c1)C(NCc1ccccc1)=Nc1ccccc1O2 [SW9, N-benzyl-2-chlorodibenzo[b,f][1,4]oxazepin-11-amine] | – | – | 60.8 µM | 3.1 | 19.7 µM | – | –
Clc1ccc2c(c1)C(NCC1CC1)=Nc1ccccc1O2 [SW11, 2-chloro-N-(cyclopropylmethyl)dibenzo[b,f][1,4]oxazepin-11-amine] | – | – | 74 µM | 1.7 | 44 µM | – | –
Oc1ccc(CCNC2=Nc3ccccc3Oc3ccc(Cl)cc32)cc1 [SW12, 4-(2-((2-chlorodibenzo[b,f][1,4]oxazepin-11-yl)amino)ethyl)phenol] | – | – | 52.1 µM | 1.6 | 33.5 µM | – | –
CCCNC1=Nc2ccccc2Oc2ccc(Cl)cc21 [SW13, 2-chloro-N-propyldibenzo[b,f][1,4]oxazepin-11-amine] | – | – | 112 µM | 2.0 | 56 µM | – | –
Clc1ccc2c(c1)C(NCCc1ccncc1)=Nc1ccccc1O2 [SW16, 2-chloro-N-(2-(pyridin-4-yl)ethyl)dibenzo[b,f][1,4]oxazepin-11-amine] | – | – | 51.1 µM | 2.8 | 18.5 µM | – | –
CCC(CC)NC1=Nc2ccccc2Oc2ccc(Cl)cc21 [SW17, 2-chloro-N-(pentan-3-yl)dibenzo[b,f][1,4]oxazepin-11-amine] | – | – | 72.8 µM | 2.6 | 28.5 µM | – | –
CC(C)CCNC1=Nc2ccccc2Oc2ccc(Cl)cc21 [SW18, 2-chloro-N-isopentyldibenzo[b,f][1,4]oxazepin-11-amine] | – | – | 70.1 µM | 1.3 | 55.1 µM | – | –
Fc1ccc(CCNC2=Nc3ccccc3Oc3ccc(Cl)cc32)cc1 [SW19, 2-chloro-N-(4-fluorophenethyl)dibenzo[b,f][1,4]oxazepin-11-amine] | – | – | 112 µM | 1.8 | 61.5 µM | – | –
Clc1ccc(CCNC2=Nc3ccccc3Oc3ccc(Cl)cc32)cc1 [SW20, 2-chloro-N-(4-chlorophenethyl)dibenzo[b,f][1,4]oxazepin-11-amine] | – | – | 91.6 µM | 2.0 | 45.1 µM | – | –

Compound | IC50 (RAW264.7; cytotoxicity, RAW264.7 cells, read-out: IC50 (μM) RAW264.7) | EC50 (S. Typhimurium 14028; intracellular Salmonella in infected RAW264.7 cells, read-out: EC50 (μM) S. Typhimurium 14028) | IC50 (RAW264.7; [1]) | Selectivity ratio (IC50/EC50) (S. Typhimurium 14028) | EC50 (S. Typhimurium 14028; [2]) | IC50 (RAW264.7; [3]) | EC50 (S. Typhimurium 14028; [4])
Clc1ccc2c(c1)C(NCCN1CCCCC1)=Nc1cccnc1N2 [SW21, 8-chloro-N-(2-(piperidin-1-yl)ethyl)-11H-benzo[e]pyrido[3,2-b][1,4]diazepin-6-amine] | – | – | – | 11.0 | – | 63.6 µM | 5.8 µM
Clc1ccc2c(c1)C(NCCCN1CCCC1)=Nc1ccccc1O2 [SW22, 2-chloro-N-(3-(pyrrolidin-1-yl)propyl)dibenzo[b,f][1,4]oxazepin-11-amine] | – | – | 16.3 µM | 14.8 | 1.1 µM | – | –
O=C1CCCN1CCCNC1=Nc2ccccc2Oc2ccc(Cl)cc21 [SW23, 1-(3-((2-chlorodibenzo[b,f][1,4]oxazepin-11-yl)amino)propyl)pyrrolidin-2-one] | – | – | > 90 µM | >1.3 | > 90 µM | – | –
O=C(CNC1=Nc2ccccc2Oc2ccc(Cl)cc21)N1CCCC1 [SW24, 2-((2-chlorodibenzo[b,f][1,4]oxazepin-11-yl)amino)-1-(pyrrolidin-1-yl)ethan-1-one] | – | – | > 90 µM | – | > 90 µM | – | –
CN1CCCC1CCNC1=Nc2cccnc2Nc2ccc(Cl)cc21 (stereo not shown) [SW25, 8-chloro-N-(2-(1-methylpyrrolidin-2-yl)ethyl)-11H-benzo[e]pyrido[3,2-b][1,4]diazepin-6-amine] | – | – | – | 26.2 | – | 85.5 µM | 3.3 µM
Clc1ccc2c(c1)C(NCCCN1CCCCC1)=Nc1ccccc1O2 [SW26, 2-chloro-N-(3-(piperidin-1-yl)propyl)dibenzo[b,f][1,4]oxazepin-11-amine] | – | – | 16.1 µM | 14.6 | 1.1 µM | – | –
CN(C)CCNC1=Nc2cccnc2Nc2ccc(Cl)cc21 [SW27, N1-(8-chloro-11H-benzo[e]pyrido[3,2-b][1,4]diazepin-6-yl)-N2,N2-dimeth ylethane-1,2-diamine] | – | – | – | >13.9 | – | > 90 µM | 6.5 µM
Clc1ccc2c(c1)C(NCCN1CCCC1)=Nc1cccnc1N2 [SW28, 8-chloro-N-(2-(pyrrolidin-1-yl)ethyl)-11H-benzo[e]pyrido[3,2-b][1,4]diazepin-6-amine] | – | – | – | 6.8 | – | 63.2 µM | 9.3 µM
Clc1ccc2c(c1)C(NCCCN1CCCC1)=Nc1cccnc1N2 [SW29, 8-chloro-N-(3-(pyrrolidin-1-yl)propyl)-11H-benzo[e]pyrido[3,2-b][1,4]diazepin-6-amine] | – | – | – | 18.8 | – | 101 µM | 5.3 µM
CN1CCN(CCCNC2=Nc3cccnc3Nc3ccc(Cl)cc32)CC1 [SW31, 8-chloro-N-(3-(4-methylpiperazin-1-yl)propyl)-11H-benzo[e]pyrido[3,2-b][1,4]diazepin-6-amine] | – | – | – | 18.7 | – | 129 µM | 7 µM
Clc1ccc2c(c1)C(NCCCN1CCCCC1)=Nc1cccnc1N2 [SW32, 8-chloro-N-(3-(piperidin-1-yl)propyl)-11H-benzo[e]pyrido[3,2-b][1,4]diazepin-6-amine] | – | – | – | 16.4 | – | 105 µM | 6.4 µM
c1ccc2c(c1)N=C(NCCCN1CCCC1)c1ccccc1N2 [SW33, N-(3-(pyrrolidin-1-yl)propyl)-5H-dibenzo[b,e][1,4]diazepin-11-amine] | – | – | 143 µM | 213.4 | 0.7 µM | – | –
c1ccc2c(c1)N=C(NCCN1CCCCC1)c1ccccc1N2 [SW35, N-(2-(piperidin-1-yl)ethyl)-5H-dibenzo[b,e][1,4]diazepin-11-amine] | – | – | 111 µM | 29.3 | 3.8 µM | – | –
Cc1cc2c(s1)Nc1ccccc1N=C2NCCN1CCCCC1 [SW38, 2-methyl-N-(2-(piperidin-1-yl)ethyl)-10H-benzo[b]thieno[2,3-e][1,4]diazepin-4-amine] | – | – | 36.5 µM | 22.4 | 1.6 µM | – | –
Cc1cc2c(s1)Nc1ccccc1N=C2NCCN(C)C [SW39, N1,N1-dimethyl-N2-(2-methyl-10H-benzo[b]thieno[2,3-e][1,4]diazepin-4-yl)ethane-1,2-diamine] | – | – | 122 µM | 72.5 | 1.7 µM | – | –
Cc1cc2c(s1)Nc1ccccc1N=C2NCCN1CCNCC1 [SW41, 2-methyl-N-(2-(piperazin-1-yl)ethyl)-10H-benzo[b]thieno[2,3-e][1,4]diazepin-4-amine] | – | – | 105 µM | 26.8 | 3.9 µM | – | –
Cc1cc2c(s1)Nc1ccccc1N=C2NCCCN1CCCC1 [SW42, 2-methyl-N-(3-(pyrrolidin-1-yl)propyl)-10H-benzo[b]thieno[2,3-e][1,4]diazepin-4-amine] | – | – | 76.4 µM | 82.6 | 0.9 µM | – | –
Cc1cc2c(s1)Nc1ccccc1N=C2NCCCN(C)C [SW43, N1,N1-dimethyl-N3-(2-methyl-10H-benzo[b]thieno[2,3-e][1,4]diazepin-4-yl)propane-1,3-diamine] | – | – | 102 µM | 82.1 | 1.2 µM | – | –
